Assay results reported in paper PMC4981864, “Novel pH-Sensitive Cyclic Peptides” (Scientific Reports, 2016).
Ends that are not written are not given here. Peptide text beside a SMILES is read from it.

Legend:
[1] = format: physicochemical; settings: pH 8
Experimental: (§1) Large unilamellar vesicles (LUVs) were prepared by extrusion. POPC, 1-palmitoyl-2-oleoyl-sn-glycero-3-phosphocholine (Avanti Polar Lipids), or a mixture of POPC with 0.5% of 18:1 NBD-PE, 1,2-dioleoyl-sn-glycero-3-phosphoethanolamine-N-7-nitro-2-1,3-benzoxadiazol-4-yl ammonium salt (Avanti Polar Lipids) were dissolved in chloroform, desolvated on a rotary evaporator, and dried under high vacuum for several hours. The phospholipid film was then rehydrated in 10 mM phosphate buffer pH 8.0, vortexed until the lipid bilayer was completely dissolved, and repeatedly (15–21 times) extruded through the membranes with 50 nm pore sizes to obtain LUVs.
pH-dependent partitioning of the peptides into a lipid bilayer of the membrane was investigated by the shift of the position of the fluorescence spectral maximum for the peptides in the presence POPC liposomes induced by a drop of pH from 8 to 2.5 by the addition of HCl. The peptides were incubated overnight with 50-nm POPC liposomes (final concentration of the peptides and POPC in solution was 5 μM and 1 mM, respectively), and pH decrease was achieved by the addition of aliquots of 4, 2, 1 and 0.1 M HCl. pH was measured by micro-electrode probe (Thermo Electron Corporation, Orion Ross Micro pH electrode). Fluorescence spectra were recorded at each pH value. The spectra were analyzed by the decomposition algorithms using on-line PFAST toolkit[47] (Protein Fluorescence and Structural Toolkit: http://pfast.phys.uri.edu/) to establish the position of the emission maximum. Finally, the positions of the fluorescence spectral maxima (λmax) were plotted versus pH, and the Henderson–Hasselbalch equation was used to fit the data (using Origin 8.5 software): […]
where [drawing 3] and [drawing 4] are the beginning and the end of the transition, respectively, and pKa – is the midpoint of the transition.

[2] = Steady-state tryptophan fluorescence and CD with and without POPC liposomes; format: physicochemical; settings: for maximum position of the fluorescence spectrum λmax, Pep, pH8: peptide in phosphate buffer pH 8, no liposomes; for maximum position of the fluorescence spectrum λmax, Pep, pH8 / maximum position of the fluorescence spectrum λmax, Pep-PC, pH3 / maximum position of the fluorescence spectrum λmax, Pep-PC, pH8: 5 μM peptide, excitation 280 nm, 25 °C; for maximum position of the fluorescence spectrum λmax, Pep-PC, pH3 / S, normalized area under the spectra, Pep-PC, pH3: with POPC liposomes pH 3; for maximum position of the fluorescence spectrum λmax, Pep-PC, pH3 / maximum position of the fluorescence spectrum λmax, Pep-PC, pH8: 1.25 mM lipids; for S, normalized area under the spectra, Pep-PC, pH3 / S, normalized area under the spectra, Pep-PC, pH8: normalized on area for peptide at pH 8 in absence of POPC; for maximum position of the fluorescence spectrum λmax, Pep-PC, pH8 / S, normalized area under the spectra, Pep-PC, pH8: with POPC liposomes pH 8
Experimental: as §1
Freshly prepared peptides and POPC vesicles were mixed to have 5 μM of a peptide and 1.25 mM of lipids in the final solution. Steady-state fluorescence measurements were carried out on a PC1 spectrofluorometer (ISS, Inc.) under temperature control at 25 °C. Tryptophan fluorescence was excited at 280 nm (there is no Phe or Tyr in the peptides) and recorded with the excitation and emission slits set at 1 nm. The polarizers in the excitation and emission paths were set at the “magic” angle (54.7° from the vertical orientation) and vertically (0°), respectively. Steady state CD measurements were carried out in MOS 450 spectropolarimeter (Bio-Logic, Inc.) with the same concentrations of peptide and lipids used in fluorescence measurements.

[3] = Dual quenching assay (acrylamide / 10-DN); format: physicochemical; settings: 7 μM peptide, 2.1 mM POPC; for percentage of fluorescence quenching, Pep-PC+AC pH3 / percentage of fluorescence quenching, Pep-PC+AC pH8: 235 mM acrylamide; for percentage of fluorescence quenching, Pep-PC+AC pH3 / percentage of fluorescence quenching, Pep-PC+10-DN pH3: pH 3; for percentage of fluorescence quenching, Pep-PC+AC pH8 / percentage of fluorescence quenching, Pep-PC+10-DN pH8: pH 8; for percentage of fluorescence quenching, Pep-PC+10-DN pH3 / percentage of fluorescence quenching, Pep-PC+10-DN pH8: 10% of lipids replaced by 10-DN
Source text: To establish localization of the peptides within a lipid bilayer of membrane, dual quenching assay[28] was employed (Fig. 3 and Table S3). Effective quenching of fluorescence by acrylamide would occur only for tryptophan residues exposed to polar parts of the outer or inner leaflets of the bilayer. At the same time, tryptophan residues located in the middle of a membrane would be effectively quenched by 10-DN. The result of the dual quenching assay allows establishing if tryptophan residues were located in the middle of a membrane or close to the polar headgroups of the bilayer. […] Therefore, we also performed Förster resonance energy transfer (FRET) assay[29] (Fig. 4). First, symmetrically-labelled by NBD dye, POPC liposomes were prepared. Then, membrane-impermeable dithionite was used to chemically modify exposed NBD, which led to the quenching of NBD fluorescence. Thus, NBD dyes located at the outer leaflet of the bilayer were deactivated and excess of dithionite was removed by gel filtration. As a result, asymmetrically-labelled liposomes with active NBD at the inner leaflet were obtained. FRET was monitored from tryptophan residues of the peptides to NBD. Energy transfer might occur only when both fluorophores are in proximity to each other (within 5–15 Å). Thus, when tryptophan residues located at the outer leaflet of the bilayer no significant energy transfer to NBD at the inner leaflet would occur (the distance is about 50–60 Å). […] All other peptides were located at the outer leaflet of the bilayer at pH 8. Drop of pH promoted partitioning of all cyclic peptides into bilayer, which highest FRET for the c[E4W5C] at pH 3.
POPC liposomes without and with 10% of the lipids replaced by 10-doxylnonadecane (10-DN) (Avanti Polar Lipids) were prepared in 10 mM citrate-phosphate buffer pH 8.0. Peptides and POPC liposomes were mixed to generate final concentrations of 7 μM peptide and 2.1 mM POPC without and with 10-DN. […] Quencher, acrylamide (Sigma-Aldrich), was added to the samples of POPC liposomes containing no 10-DN, to have final concentration of 235 mM acrylamide. Concentration of peptides in all samples was kept constant. To observe quenching of tryptophan fluorescence by 10-DN or acrylamide, the tryptophan fluorescence was recorded as described above. The appropriate POPC blanks were measured and subtracted from the measured spectra before analysis. The percentage of quenching was calculated.

HeLa cells = settings: concentrations used in this study, treatment of 2-4 hours; cited from earlier work
Experimental: Symmetric, c[(WE)4WC], and asymmetric, c[E4W5C], cyclic peptides were evaluated for their ability to move polar cargo across the membrane. The experiments on live cells were performed at physiologically relevant pHs, such as pH 7.4 (extracellular pH of normal cells) and pH 6.0 (extracellular pH in the vicinity of cancer cells[12]). As a polar cargo, we used amanitin, which is a cell-impermeable cyclic p ...

Compound | apparent pK (pKa) of peptide's partitioning into the bilayer [1] | maximum position of the fluorescence spectrum λmax, Pep, pH8 [2] [nm] | maximum position of the fluorescence spectrum λmax, Pep-PC, pH3 [2] [nm] | S, normalized area under the spectra, Pep-PC, pH3 [2] | maximum position of the fluorescence spectrum λmax, Pep-PC, pH8 [2] [nm] | S, normalized area under the spectra, Pep-PC, pH8 [2] | percentage of fluorescence quenching, Pep-PC+AC pH3 [3] [%] | percentage of fluorescence quenching, Pep-PC+AC pH8 [3] [%] | percentage of fluorescence quenching, Pep-PC+10-DN pH3 [3] [%] | percentage of fluorescence quenching, Pep-PC+10-DN pH8 [3] [%] | pH-dependent interaction with / partitioning into the lipid bilayer of membrane ([2]; fluorescence and CD, POPC liposomes, pH 8 and pH 3) | cell death by amanitin alone (HeLa cells)
O=C(O)CC[C@@H]1NC(=O)[C@H](Cc2c[nH]c3ccccc23)NC(=O)[C@H](CS)NC(=O)[C@H](Cc2c[nH]c3ccccc23)NC(=O)[C@H](CCC(=O)O)NC(=O)[C@H](Cc2c[nH]c3ccccc23)NC(=O)[C@H](CCC(=O)O)NC(=O)[C@H](Cc2c[nH]c3ccccc23)NC(=O)[C@H](CCC(=O)O)NC(=O)[C@H](Cc2c[nH]c3ccccc23)NC(=O)[C@H](CCC(=O)O)NC(=O)[C@H](Cc2c[nH]c3ccccc23)NC1=O [c[(WE)5WC]] (cyclo(CWEWEWEWEWEW)) | 6.3 | 350.3±0.2 | 341.2±0.4 | 2.1±0.3 | 346.7±1.2 | 1.5±0.3 | 68 | 78 | 40 | 13 |  | 
CWEWEWEWEW [l(CW(EW)4)] | 5.7 |  |  |  |  |  |  |  |  |  |  | 
N=C(N)NCCC[C@@H]1NC(=O)[C@H](CS)NC(=O)[C@H](Cc2c[nH]c3ccccc23)NC(=O)[C@H](Cc2c[nH]c3ccccc23)NC(=O)[C@H](Cc2c[nH]c3ccccc23)NC(=O)[C@H](Cc2c[nH]c3ccccc23)NC(=O)[C@H](Cc2c[nH]c3ccccc23)NC(=O)[C@H](CCCNC(=N)N)NC(=O)[C@H](CCCNC(=N)N)NC(=O)[C@H](CCCNC(=N)N)NC1=O [c[R4W5C]] |  |  |  |  |  |  |  |  |  |  | does not exhibit pH-dependent changes | 
O=C(O)CC[C@@H]1NC(=O)[C@H](Cc2c[nH]c3ccccc23)NC(=O)[C@H](CS)NC(=O)[C@H](Cc2c[nH]c3ccccc23)NC(=O)[C@H](CCC(=O)O)NC(=O)[C@H](Cc2c[nH]c3ccccc23)NC(=O)[C@H](CCC(=O)O)NC(=O)[C@H](Cc2c[nH]c3ccccc23)NC1=O [c[(WE)3WC]] (cyclo(CWEWEWEW)) | 6.1 | 351.0±0.2 | 341.7±0.2 | 1.7±0.3 | 349.1±0.7 | 0.9±0.1 | 63 | 83 | 47 | 6 |  | 
alpha-amanitin |  |  |  |  |  |  |  |  |  |  |  | does not induce cell death
O=C(O)CC[C@@H]1NC(=O)[C@H](Cc2c[nH]c3ccccc23)NC(=O)[C@H](CS)NC(=O)[C@H](Cc2c[nH]c3ccccc23)NC(=O)[C@H](CCC(=O)O)NC(=O)[C@H](Cc2c[nH]c3ccccc23)NC(=O)[C@H](CCC(=O)O)NC(=O)[C@H](Cc2c[nH]c3ccccc23)NC(=O)[C@H](CCC(=O)O)NC(=O)[C@H](Cc2c[nH]c3ccccc23)NC1=O [c[(WE)4WC]] (cyclo(CWEWEWEWEW)) | 6.4 | 350.5±0.2 | 341.1±0.9 | 1.6±0.2 | 347.5±1.2 | 1.1±0.1 | 50 | 82 | 40 | 11 |  | 
CC(C)C[C@@H]1NC(=O)[C@H](CS)NC(=O)[C@H](Cc2c[nH]c3ccccc23)NC(=O)[C@H](CCC(=O)O)NC(=O)[C@H](CC(C)C)NC(=O)[C@H](CCC(=O)O)NC(=O)[C@H](CC(C)C)NC(=O)[C@H](CCC(=O)O)NC(=O)[C@H](CC(C)C)NC(=O)[C@H](CCC(=O)O)NC1=O [c[(LE)4WC]] (cyclo(CLELELELEW)) | 4.7 | 348.7±0.3 | 339.6±1.2 | 1.1±0.1 | 348.2±0.6 | 1.1±0.0 | 59 | 96 | 17 | 0 |  | 
